Data: patent publication US20100144003A1, “INDUCTION OF MICROBIAL SECONDARY METABOLITES” (AQUAPHARM BIO-DISCOVERY LIMITED, priority 2007, published 2010)

System: Gram-positive bacterial strains
Test: activity against Gram-positive bacterial strains
Format: cell-based
Conditions: compound produced by AQP4511 in PDY medium supplemented with 0.5 mM NaNO3
Procedure: A Streptomyces sp. strain AQP4511 produced a red orange compound, which has a naphthoquinone structure, in a PDY medium supplemented with 0.5 mM NaNO3.

COc1cc(O)c2c(c1)C(=O)C1=C(C2=O)C(OC(C)=O)C(O)C(C)O1 (stereo not shown) [Gunacin]
activity against most of Gram-positive bacterial strains: very strong activity
